Assay results reported in patent US8486901B2 (priority 2009, dated 2013).
Several values for one entry are separate records, joined by “and”; a condition that tells them apart may be missing. Identical values can stand only once.

System: Kunming mice
Conditions: mouse, in vivo

## N=C1NC(O)C2C3OC4(O)OC(C(O)C2(N1)[C@@H]4O)C3(O)COC1OC(CO)C(O)C(O)C1O (stereo partly drawn) [Formula 11-Gal-TTX, 11-galactopyranosyl-TTX]
  Effect on pain (result in words): inhibitory effect on pain
  Inhibition rate (%): 60.6% and 30.3% and 51.7%
  Number of writhes: 12.50 ± 4.7 and 22.10 ± 6.4 and 15.30 ± 6.4
